# Measurements taken from ChEMBL document CHEMBL1275550, “In vitro activity of doripenem, a carbapenem for the treatment of challenging infections caused by gram-negative bacteria, against recent clinical isolates from the United States” (2008).
# What was measured:
# [1] = system: Serratia marcescens; experiment: Antimicrobial activity against Ceftazidime susceptible Serratia marcescens assessed as resistant isolate by broth microdilution method; format: functional
# [2] = system: Pseudomonas aeruginosa; experiment: Antimicrobial activity against Pseudomonas aeruginosa isolated from non-ICU patient assessed as resistant isolate by broth microdilution method
# [3] = system: Serratia marcescens; experiment: Antimicrobial activity against Ceftazidime non-susceptible Serratia marcescens assessed as intermediate isolate by broth microdilution method; format: functional
# [4] = system: Pseudomonas aeruginosa; experiment: Antimicrobial activity against Pseudomonas aeruginosa isolated from ICU patient assessed as susceptible isolate by broth microdilution method
# [5] = system: Pseudomonas aeruginosa; experiment: Antimicrobial activity against Pseudomonas aeruginosa isolated from non-ICU patient by broth microdilution method
# [6] = system: Enterobacteriaceae; experiment: Antimicrobial activity against Ceftazidime non-susceptible Enterobacteriaceae assessed as resistant isolate by broth microdilution method; format: functional
# [7] = system: Enterobacteriaceae; experiment: Antimicrobial activity against Ceftazidime non-susceptible Enterobacteriaceae by broth microdilution method; format: functional
# [8] = system: Citrobacter; experiment: Antimicrobial activity against Citrobacter with derepressed AmpC beta-lactamsae assessed as susceptible isolate by broth microdilution method; format: functional
# [9] = system: Proteus mirabilis; experiment: Antimicrobial activity against ESBL producing Proteus mirabilis assessed as susceptible isolate by broth microdilution method; format: functional
# [10] = system: Escherichia coli; experiment: Antimicrobial activity against Escherichia coli assessed as susceptible isolate by broth microdilution method; format: functional
# [11] = system: Citrobacter; experiment: Antimicrobial activity against Citrobacter by broth microdilution method; format: functional
# [12] = system: Staphylococcus aureus; experiment: Antimicrobial activity against methicillin-susceptible Staphylococcus aureus assessed as susceptible isolate by broth microdilution method; format: functional
# [13] = system: Proteus mirabilis; experiment: Antimicrobial activity against Proteus mirabilis by broth microdilution method; format: functional
# [14] = system: Enterobacter cloacae; experiment: Antimicrobial activity against Enterobacter cloacae with nonderepressed AmpC beta-lactamsae assessed as susceptible isolate by broth microdilution method; format: functional
# [15] = system: Serratia marcescens; experiment: Antimicrobial activity against Ceftazidime non-susceptible Serratia marcescens assessed as susceptible isolate by broth microdilution method; format: functional
# [16] = system: Enterobacter cloacae; experiment: Antimicrobial activity against Enterobacter cloacae by broth microdilution method; format: functional
# [17] = system: Pseudomonas aeruginosa; experiment: Antimicrobial activity against Pseudomonas aeruginosa isolated from non-ICU patient by broth microdilution method; format: functional
# [18] = system: Enterobacter cloacae; experiment: Antimicrobial activity against Enterobacter cloacae with derepressed AmpC beta-lactamsae assessed as intermediate isolate by broth microdilution method; format: functional
# [19] = system: Klebsiella pneumoniae; experiment: Antimicrobial activity against ESBL producing Klebsiella pneumoniae assessed as intermediate isolate by broth microdilution method; format: functional
# [20] = system: Klebsiella pneumoniae; experiment: Antimicrobial activity against Klebsiella pneumoniae by broth microdilution method; format: functional
# [21] = system: Pseudomonas aeruginosa; experiment: Antimicrobial activity against Ceftazidime susceptible Pseudomonas aeruginosa by broth microdilution method; format: functional
# [22] = system: Citrobacter; experiment: Antimicrobial activity against Citrobacter with derepressed AmpC beta-lactamsae assessed as intermediate isolate by broth microdilution method; format: functional
# [23] = system: Pseudomonas aeruginosa; experiment: Antimicrobial activity against imipenem susceptible Pseudomonas aeruginosa assessed as intermediate isolate by broth microdilution method; format: functional
# [24] = system: Citrobacter; experiment: Antimicrobial activity against Citrobacter with nonderepressed AmpC beta-lactamsae assessed as susceptible isolate by broth microdilution method; format: functional
# [25] = system: Pseudomonas aeruginosa; experiment: Antimicrobial activity against Ceftazidime non-susceptible Pseudomonas aeruginosa assessed as susceptible isolate by broth microdilution method; format: functional
# [26] = system: Enterobacteriaceae; experiment: Antimicrobial activity against Enterobacteriaceae assessed as resistant isolate by broth microdilution method; format: functional
# [27] = system: Streptococcus pneumoniae; experiment: Antimicrobial activity against penicillin-resistant Streptococcus pneumoniae by broth microdilution method; format: functional; settings: Streptococcus pneumoniae
# [28] = system: Pseudomonas aeruginosa; experiment: Antimicrobial activity against Pseudomonas aeruginosa assessed as intermediate isolate by broth microdilution method; format: functional
# [29] = system: Citrobacter; experiment: Antimicrobial activity against Citrobacter with nonderepressed AmpC beta-lactamsae assessed as resistant isolate by broth microdilution method; format: functional
# [30] = system: Serratia marcescens; experiment: Antimicrobial activity against Ceftazidime susceptible Serratia marcescens assessed as susceptible isolate by broth microdilution method; format: functional
# [31] = system: Pseudomonas aeruginosa; experiment: Antimicrobial activity against Pseudomonas aeruginosa isolated from ICU patient assessed as resistant isolate by broth microdilution method
# [32] = system: Proteus mirabilis; experiment: Antimicrobial activity against Non-ESBL Proteus mirabilis assessed as susceptible isolate by broth microdilution method; format: functional
# [33] = system: Enterobacteriaceae; experiment: Antimicrobial activity against ceftazidime-susceptible Enterobacteriaceae by broth microdilution method; format: functional
# [34] = system: Acinetobacter; experiment: Antimicrobial activity against imipenem susceptible Acinetobacter assessed as susceptible isolate by broth microdilution method; format: functional
# [35] = system: Enterobacteriaceae; experiment: Antimicrobial activity against Enterobacteriaceae assessed as susceptible isolate by broth microdilution method; format: functional
# [36] = system: Klebsiella pneumoniae; experiment: Antimicrobial activity against ESBL producing Klebsiella pneumoniae by broth microdilution method; format: functional
# [37] = system: Acinetobacter; experiment: Antimicrobial activity against imipenem non-susceptible Acinetobacter assessed as intermediate isolate by broth microdilution method; format: functional
# [38] = system: Pseudomonas aeruginosa; experiment: Antimicrobial activity against Ceftazidime non-susceptible Pseudomonas aeruginosa assessed as intermediate isolate by broth microdilution method; format: functional
# [39] = system: Pseudomonas aeruginosa; experiment: Antimicrobial activity against Ceftazidime susceptible Pseudomonas aeruginosa assessed as susceptible isolate by broth microdilution method; format: functional
# [40] = system: Citrobacter; experiment: Antimicrobial activity against Citrobacter assessed as susceptible isolate by broth microdilution method; format: functional
# [41] = system: Acinetobacter; experiment: Antimicrobial activity against Acinetobacter by broth microdilution method; format: functional
# [42] = system: Streptococcus pneumoniae; experiment: Antimicrobial activity against penicillin-intermediate Streptococcus pneumoniae assessed as intermediate isolate by broth microdilution method; format: functional
# [43] = system: Klebsiella pneumoniae; experiment: Antimicrobial activity against ESBL producing Klebsiella pneumoniae assessed as susceptible isolate by broth microdilution method; format: functional
# [44] = system: Proteus mirabilis; experiment: Antimicrobial activity against Non-ESBL Proteus mirabilis assessed as resistant isolate by broth microdilution method; format: functional
# [45] = system: Pseudomonas aeruginosa; experiment: Antimicrobial activity against Pseudomonas aeruginosa by broth microdilution method; format: functional
# [46] = system: Pseudomonas aeruginosa; experiment: Antimicrobial activity against Pseudomonas aeruginosa assessed as resistant isolate by broth microdilution method; format: functional
# [47] = system: Enterobacteriaceae; experiment: Antimicrobial activity against ceftazidime-susceptible Enterobacteriaceae assessed as intermediate isolate by broth microdilution method; format: functional
# [48] = system: Pseudomonas aeruginosa; experiment: Antimicrobial activity against imipenem non-susceptible Pseudomonas aeruginosa by broth microdilution method; format: functional
# [49] = system: Streptococcus pneumoniae; experiment: Antimicrobial activity against penicillin-resistant Streptococcus pneumoniae assessed as resistant isolate by broth microdilution method; format: functional
# [50] = system: Klebsiella pneumoniae; experiment: Antimicrobial activity against Klebsiella pneumoniae assessed as intermediate isolate by broth microdilution method; format: functional
# [51] = system: Citrobacter; experiment: Antimicrobial activity against Citrobacter assessed as intermediate isolate by broth microdilution method; format: functional
# [52] = system: Enterobacteriaceae; experiment: Antimicrobial activity against Enterobacteriaceae assessed as intermediate isolate by broth microdilution method; format: functional
# [53] = system: Klebsiella pneumoniae; experiment: Antimicrobial activity against Non-ESBL Klebsiella pneumoniae assessed as susceptible isolate by broth microdilution method; format: functional
# [54] = system: Pseudomonas aeruginosa; experiment: Antimicrobial activity against imipenem susceptible Pseudomonas aeruginosa assessed as susceptible isolate by broth microdilution method; format: functional
smiles,measurement,setting,value
C[C@@H](O)[C@H]1C(=O)N2C(C(=O)O)=C(SCCNC=N)C[C@H]12 [IMIPENEM ANHYDROUS],Activity,[1],0.8%
same,Activity,[2],17.2%
same,Activity,[3],0%
same,Activity,[4],67.6%
same,Activity,[5],74.9%
same,Activity,[6],1%
same,MIC50,[7],1 µg/mL
same,MIC90,[7],2 µg/mL
same,Activity,[8],100%
same,Activity,[9],100%
same,Activity,[10],100%
same,MIC50,[11],1 µg/mL
same,MIC90,[11],2 µg/mL
same,Activity,[12],100%
same,MIC50,[13],2 µg/mL
same,MIC90,[13],4 µg/mL
same,Activity,[14],99.5%
same,Activity,[15],100%
same,MIC50,[16],1 µg/mL
same,MIC90,[16],2 µg/mL
same,MIC50,[17],4 µg/mL
same,MIC90,[17],32 µg/mL
same,Activity,[18],0%
same,Activity,[19],2.3%
same,MIC50,[20],0.5 µg/mL
same,MIC90,[20],1 µg/mL
same,MIC50,[21],4 µg/mL
same,MIC90,[21],16 µg/mL
same,Activity,[22],0%
same,Activity,[23],0%
same,Activity,[24],99.8%
same,Activity,[25],55.5%
same,Activity,[26],0.1%
same,MIC50,[27]; read-out: MIC50,0.5 µg/mL
same,MIC90,[27]; read-out: MIC90,1 µg/mL
same,Activity,[28],7.7%
same,Activity,[29],0.2%
same,Activity,[30],98.9%
same,Activity,[31],26.6%
same,Activity,[32],97.3%
same,MIC50,[33],0.5 µg/mL
same,MIC90,[33],2 µg/mL
same,Activity,[34],100%
same,Activity,[35],99.4%
same,MIC50,[36],0.5 µg/mL
same,MIC90,[36],1 µg/mL
same,Activity,[37],3.9%
same,Activity,[38],8.2%
same,Activity,[39],79.3%
same,Activity,[40],99.8%
same,MIC50,[41],1 µg/mL
same,MIC90,[41],> 32 µg/mL
same,Activity,[42],84.4%
same,Activity,[43],95.5%
same,Activity,[44],0.2%
same,MIC50,[45],4 µg/mL
same,MIC90,[45],32 µg/mL
same,Activity,[46],16%
same,Activity,[47],0.3%
same,MIC50,[48],16 µg/mL
same,MIC90,[48],> 32 µg/mL
same,Activity,[49],2.1%
same,Activity,[50],0.2%
same,Activity,[51],0%
same,Activity,[52],0.4%
same,Activity,[53],99.8%
same,Activity,[54],100%
